Like-named read-outs stand apart in the source and are kept apart here.
Columns and labels:
[1] = format: physicochemical; settings: for crystal growth in the fertilizer solutions tested: review of table 2
Text: Crystal formation in a suspension concentrate is a complex phenomenon. It is believed that if the solubility of the suspended solid chemical is high in the medium, the suspension concentrate is prone to form crystals of the suspended solid chemical in storage. […] The concentrations of the solid pesticides used in this example were low (at a typical ready-to-apply concentration range). If a solid pesticide forms crystals in such a low concentration, it is not suitable for a ready-to-apply pesticide suspension and mostly likely will not be suitable for a more concentrated suspension in fertilizer. […] By “not suitable” is meant that although it may work to some extent, it is not a good candidate for the pesticide SC.
Samples were prepared by adding the components followed by hand-shaking.

[2] = Study of additional surfactants in 10-34-0, 27-4-0 and diluted 10-34-0 fertilizers (Example 8); format: physicochemical
[3] = Storage stability of 40% clothianidin SC in 10-34-0 with wetting agent Witcolate D-510 (Example 5); format: physicochemical; settings: clothianidin suspension in 10-34-0
Method: The test samples were prepared by adding 60 grams of 10-34-0 fertilizer (from Plant Food) to a bottle. Then various amounts of Witcolate D-510 (2-ethylhexyl sulfate) were added to the 10-34-0 fertilizer and mixed well. Finally, 40 grams of clothianidin (technical grade) was added to the mixture and mixed well by shaking by hand.

[4] = Quick screening of crystal growth potential in fertilizer concentrates and water, solid pesticides containing a carboxylic acid group (Example 2); format: physicochemical; settings: for suitability for suspension in fertilizer solutions: review of table 3
Method: Samples were prepared by adding the components followed by hand-shaking. Samples were placed at 0° C. and observation was made after 1 day, unless otherwise specified.

[5] = Stability of 50% clothianidin in 50% URAN 32 fertilizer (Example 6); format: physicochemical; settings: 0.5 g in 100 g URAN 32 fertilizer solution
Method: 0.5 g Witcolate D-510 surfactant was added into 100 g URAN 32 fertilizer solution (50 wt % URAN 32 in water). […] Then 100 g clothianidin was added to the resulting solution and mixed well by hand-shaking. This sample was stable and had about 10% top clear with a smooth bottom suspension after 2 weeks at 40° C.
In other experiments, 0.3% of a pH adjusting agent (40 wt % Citric acid), was included in the SC sample (homogenized sample) and no noticeable effect was observed on stability. Viscosity measurements were made with a Brookfield viscometer at various speeds (rpm) at room temperature with a #64 spindle. This sample was very viscous but it was highly shear-thinning.

[6] = 1 wt % powder pesticide in 99 wt % 10-34-0, no wetting agent
[7] = 1 wt % powder pesticide in 99 wt % 40% AMS, no wetting agent
[8] = 1 wt % powder pesticide in 99 wt % URAN 32, no wetting agent
[9] = 1 wt % powder pesticide in 99 wt % Water, no wetting agent
[10] = 1 wt % powder pesticide, 98 wt % 10-34-0, 1 wt % Witcolate D-510
[11] = 1 wt % powder pesticide, 98 wt % 40% AMS, 1 wt % Witcolate D-510
[12] = 1 wt % powder pesticide, 98 wt % URAN 32, 1 wt % Witcolate D-510
[13] = 1 wt % powder pesticide, 98 wt % Water, 1 wt % Witcolate D-510
[14] = powder pesticide (glyphosate acid 2, 2,4-D acid 1.3, others 1 wt %) in 10-34-0, no wetting agent
[15] = powder pesticide (glyphosate acid 2, 2,4-D acid 1.3, others 1 wt %) in 10-34-0, no wetting agent, 0° C., 1 day unless otherwise specified
[16] = powder pesticide (glyphosate acid 2, 2,4-D acid 1.3, others 1 wt %) in 40% AMS, no wetting agent
[17] = powder pesticide (glyphosate acid 2, 2,4-D acid 1.3, others 1 wt %) in 40% AMS, no wetting agent, 0° C., 1 day unless otherwise specified
[18] = powder pesticide (glyphosate acid 2, 2,4-D acid 1.3, others 1 wt %) in URAN 32, no wetting agent, 0° C., 1 day unless otherwise specified
[19] = powder pesticide (glyphosate acid 2, 2,4-D acid 1.3, others 1 wt %) in Water, no wetting agent
[20] = powder pesticide (glyphosate acid 2, 2,4-D acid 1.3, others 1 wt %) in Water, no wetting agent, 0° C., 1 day unless otherwise specified
[21] = 30 wt % powder pesticide in 70 wt % 10-34-0, no wetting agent

CN(C)C(=O)Nc1ccc(Cl)c(Cl)c1 [Diuron]
Comment: powder sank or floated [1, 6]: sank and some floated.
Comment: suitability [1, 6]: Suitable
Comment: suitability [1, 7]: Suitable
Comment: powder sank or floated [1, 8]: sank
Comment: suitability [1, 8]: Suitable
Comment: suitability [1, 9]: Suitable
Comment: suitability [1, 10]: Suitable
Comment: powder sank or floated [1, 11]: sank
Comment: suitability [1, 11]: Suitable
Comment: powder sank or floated [1, 12]: sank
Comment: suitability [1, 12]: Suitable
Comment: powder sank or floated [1, 13]: sank
Comment: suitability [1, 13]: Suitable
crystal growth in the fertilizer solutions tested [1]: did not have crystal growth

CCCCC(CC)COC(=O)CC(C(=O)OCC(CC)CCCC)S(=O)(=O)O.[Na] (stereo not shown) [Aerosol AOT-75, sodium bis (2-ethyl hexyl) sulfosuccinate]
Surfactant Suitability ([2]; 27-4-0 99, surfactant 1 wt): Not suitable
suitability for the fertilizers tested ([2]; review of table 10): not suitable

C4-C6 phosphate ester with less than 7EO units (acid form)
surfactant in place of Witcolate D-510 to produce similar clothianidin suspensions [3]: suitable

Cc1c(COC(=O)[C@@H]2[C@H](/C=C(\Cl)C(F)(F)F)C2(C)C)cccc1-c1ccccc1 (racemic) [Bifenthrin]
Comment: powder sank or floated [1, 10]: floated
Comment: suitability [1, 10]: Suitable
Comment: powder sank or floated [1, 11]: sank
Comment: suitability [1, 11]: Suitable
Comment: powder sank or floated [1, 12]: floated
Comment: suitability [1, 12]: Suitable
Comment: powder sank or floated [1, 13]: sank
Comment: suitability [1, 13]: Suitable
crystal growth in the fertilizer solutions tested [1]: did not have crystal growth

O=C(O)COc1ccc(Cl)cc1Cl [2,4-D acid]
Comment: suitability [4, 14]: particles. Not suitable
Comment: crystal growth or other change [4, 15]: Crystal growth between powder
Comment: dissolution [4, 15]: Not dissolved
Comment: powder sank or floated [4, 15]: Powder sank
Comment: suitability [4, 16]: particles. Not suitable
Comment: crystal growth or other change [4, 17]: Crystal growth between powder
Comment: dissolution [4, 17]: Not dissolved
Comment: powder sank or floated [4, 17]: Powder sank
Comment: suitability ([4]; powder pesticide (glyphosate acid 2, 2,4-D acid 1.3, others 1 wt %) in URAN 32, no wetting agent): particles. Not suitable
Comment: crystal growth or other change [4, 18]: Crystal growth between powder
Comment: dissolution [4, 18]: Not dissolved
Comment: powder sank or floated [4, 18]: Powder sank
Comment: suitability [4, 19]: particles. Not suitable
Comment: crystal growth or other change [4, 20]: Crystal growth between powder
Comment: dissolution [4, 20]: Not dissolved
Comment: powder sank or floated [4, 20]: Powder sank
suitability for suspension in fertilizer solutions [4]: may not be suitable

C810-3EO sulfate [C810-3EO sulfate (40%)]
Appearance ([2]; 27-4-0 89.4, surfactant 10.6 wt): Clear

CCCCC(C#N)(Cn1cncn1)c1ccc(Cl)cc1 (stereo not shown) [Myclobutanil]
Comment: powder sank or floated [1, 6]: floated
Comment: suitability [1, 6]: Suitable
Comment: powder sank or floated [1, 7]: sank
Comment: suitability [1, 7]: Suitable
Comment: powder sank or floated [1, 8]: floated
Comment: suitability [1, 8]: Suitable
Comment: powder sank or floated [1, 9]: sank
Comment: suitability [1, 9]: Suitable
Comment: powder sank or floated [1, 10]: floated
Comment: suitability [1, 10]: Suitable
Comment: powder sank or floated [1, 11]: floated
Comment: suitability [1, 11]: Suitable
Comment: powder sank or floated [1, 12]: floated
Comment: suitability [1, 12]: Suitable
Comment: powder sank or floated [1, 13]: sank
Comment: suitability [1, 13]: Suitable
crystal growth in the fertilizer solutions tested [1]: did not have crystal growth

O=C(O)CNCP(=O)(O)O [Glyphosate acid]
Comment: dissolution [4, 21]: Powder not dissolved. Powder
Comment: suitability [4, 21]: at room temp. Not suitable
Comment: crystal growth or other change ([4]; 30 wt % powder pesticide in 70 wt % 10-34-0, no wetting agent, at room temp): Crystal growth on container wall
Comment: dissolution [4, 15]: Dissolved at room temp
Comment: suitability [4, 16]: Not suitable
Comment: dissolution [4, 17]: Dissolved
Comment: crystal growth or other change [4, 20]: Crystal growth at room temp
Comment: dissolution [4, 20]: Not dissolved
suitability for suspension in fertilizer solutions [4]: may not be suitable

Sodium Laureth-2 sulfate [Witconate ES-2]
Appearance ([2]; 27-4-0 91.3, surfactant 8.7 wt): Clear

O=[N+]([O-])NC1=NCCN1Cc1ccc(Cl)nc1 [Imidaclopid]
solubility in URAN 32 [1]: high solubility
Comment: suitability [1, 6]: Suitable
Comment: suitability [1, 7]: Suitable
Comment: dissolution [1, 8]: Dissolved
Comment: suitability [1, 8]: Not suitable
Comment: suitability [1, 9]: Suitable
Comment: suitability [1, 10]: Suitable
Comment: powder sank or floated [1, 11]: sank
Comment: suitability [1, 11]: Suitable
Comment: dissolution [1, 12]: Dissolved
Comment: suitability [1, 12]: Not suitable
Comment: powder sank or floated [1, 13]: sank
Comment: suitability [1, 13]: Suitable
crystal growth in the fertilizer solutions tested [1]: did not have crystal growth

CCCCCCCCCCCC(=O)OCCOCCOCCOCCOCCOCCOCCOCCOCCOCCOCCOCCOCCOCCOCCOCCOCCOCCOCCOCCOCC(OCCOCCOCCOCCOCCOCCOCCOCCOCCOCCOCCOCCOCCOCCOCCOCCOCCOCCOCCOCCO)C1OCC(OCCOCCOCCOCCOCCOCCOCCOCCOCCOCCOCCOCCOCCOCCOCCOCCOCCOCCOCCOCCO)C1OCCOCCOCCOCCOCCOCCOCCOCCOCCOCCOCCOCCOCCOCCOCCOCCOCCOCCOCCOCCO (stereo not shown) [Tween 20, Polysorbate-20]
Appearance ([2]; 27-4-0 99.4, surfactant 0.6 wt): Clear

COc1c(Cl)ccc(Cl)c1C(=O)O [Dicamba acid]
Comment: suitability [4, 14]: Not suitable
Comment: crystal growth or other change [4, 15]: Crystal formed at bottom at 0 C.
Comment: crystal growth or other change [4, 17]: Oily drop formed at bottom.
Comment: dissolution [4, 18]: Dissolved
Comment: suitability [4, 19]: Not suitable
Comment: crystal growth or other change [4, 20]: Crystal formed at 0 C. and
suitability for suspension in fertilizer solutions [4]: may not be suitable

CCCCC(CC)COS(=O)(=O)[O-].[Na+] (stereo not shown) [Witcolate D510, 2-ethylhexyl sulfate]
dissolution of surfactant in URAN 32 [5]: dissolved in URAN 32 readily
Appearance ([2]; 27-4-0 76.6, surfactant 23.4 wt): Clear

Sodium C810 sulfate [Sodium C810 sulfate (40%)]
Appearance ([2]; 10-34-0 56.1, Water 30.7, surfactant 13.2 wt): Clear
Appearance ([2]; 27-4-0 81.2, surfactant 18.8 wt): Clear

CCNc1nc(Cl)nc(NC(C)C)n1 [Atrazine]
Comment: powder sank or floated [1, 6]: floated
Comment: suitability [1, 6]: Suitable
Comment: suitability [1, 7]: Suitable
Comment: powder sank or floated [1, 8]: floated
Comment: suitability [1, 8]: Suitable
Comment: suitability [1, 9]: Suitable
Comment: powder sank or floated [1, 10]: floated
Comment: suitability [1, 10]: Suitable
Comment: powder sank or floated [1, 11]: floated
Comment: suitability [1, 11]: Suitable
Comment: powder sank or floated [1, 12]: floated
Comment: suitability [1, 12]: Suitable
Comment: powder sank or floated [1, 13]: sank
Comment: suitability [1, 13]: Suitable
crystal growth in the fertilizer solutions tested [1]: did not have crystal growth
